In paper PMC6445162, “Effects of NS2B-NS3 protease and furin inhibition on West Nile and Dengue virus replication” (Journal of Enzyme Inhibition and Medicinal Chemistry, 2017):
Several values for one entry are separate records, joined by “and”; a condition that tells them apart may be missing. Identical values can stand only once. Like-named read-outs stand apart in the source and are kept apart here. Peptide text beside a SMILES is read from it.

Key:
WNV-protease = target: T1, WNV-protease (West Nile virus, UniProt P06935); experiment: Incubation with WNV protease and HPLC analysis of cleavage; type: biochemical; conditions: identical conditions, 4 h; data not shown
T1 construct: WNV NS2B 40-amino acid cofactor together with the NS3 protease domain
Description: The preferred P3-P1 Lys-Lys-Arg segment[29] was used for the preparation of a series of peptidic inhibitors. The peptides were modified in their prime site segment and at the P4 position (Table 2). […] In contrast, under identical conditions approximately 33% of the chromogenic substrate Phac-Lys-Lys-Arg-pNA was cleaved (data not shown). Thus, these compounds seem to be poor substrates of the WNV NS2B-NS3 protease and therefore, act as competitive inhibitors. The best Ki values <0.2 µM were obtained for peptides with the general structure phenylacetyl-Lys-Lys-Arg-NH2 containing an N-terminal guanidinomethyl substitution at the P4-residue.

WNV NS2B-NS3 protease [1] = target: T2, WNV NS2B-NS3 protease (West Nile virus, UniProt P06935); experiment: Enzyme kinetic inhibition of WNV NS2B-NS3 protease construct (Dixon plot); type: biochemical; conditions: for Ki: covalently linked WNV NS2B-NS3 construct, substrate Phac-Leu-Lys-Lys-Arg-AMC, Dixon plots, average of at least two measurements
T2 construct: WNV NS2B 40-amino acid cofactor together with the NS3 protease domain
Description: (§1) All measurements were performed at room temperature in black flat-bottom 96-well plates (Nunc, Langenselbold, Germany) using microplate readers (Tecan Safire^2, λex = 380 nm and λem = 460 nm, Tecan Group Ltd., Männedorf, Switzerland or Fluoroskan Ascent type 374, λex = 355 nm and λem = 460 nm; Thermo Fisher Scientific, Vantaa, Finland). The assays with the flavivirus protease constructs were performed with 125 μl buffer (100 mM Tris pH 8.5 containing 20% glycerol, 0.01% Triton X-100, and the inhibitor), 50 μl substrate solution, and were started by addition of 25 μl enzyme solution (total assay volume 200 μl).
For measurements with the covalently linked WNV NS2B-NS3 protease construct (∼4 nM in assay) the substrate Phac-Leu-Lys-Lys-Arg-AMC ×3 TFA (50 µM, 100 µM and 200 µM in assay, KM = 47.5 µM) was used, as described previously.
(§2) The DENV serotype 2 NS2B-NS3 protease construct was prepared from an identical clone as described by D’Arcy et al.[26] The purification of the protease was carried out in a buffer with high ion-strength and low pH value, in the absence of glycerol (20 mM Bis-Tris, 500 mM NaCl, pH 6.3), in order to prevent autolysis of the enzyme. Purification was performed by using a 5 ml HisTrapTM FF column (GE Healthcare) and subsequently, a HiLoad 16/60 SuperdexTM 75 column (GE Healthcare). The assays with the DENV-2 NS2B-NS3^pr° (∼39 nM in well) were performed with the substrate Phac-Lys-Arg-Arg-AMC ×3 TFA (125 µM, 62.5 µM and 31.25 µM in assay, KM = 60 µM). All Ki values were obtained from Dixon plots[27] and are the average of at least two measurements. Due to the weak potency of most compounds against the DENV-2 NS2B-NS3 protease construct, only the percentage of inhibition at a constant inhibitor concentration of 100 µM in the presence of 125 µM substrate was determined.

[2] = target: T3, DENV serotype 2 NS2B-NS3 protease (Dengue virus type 2, UniProt P14340); experiment: Enzyme kinetic inhibition of DENV-2 NS2B-NS3 protease construct; type: biochemical, Dengue virus serotype 2; conditions: 100 μM inhibitor in the presence of 125 μM substrate; read-out: % Inhib. (DENV)
T3 construct: The proteolytic activity of WNV and DENV is located in the N-terminal part of its NS3 protein; made in house
Description: as §1, §2

[3] = target: DENV serotype 2 NS2B-NS3 protease construct (Dengue virus serotype 2); experiment: enzyme inhibition (percent inhibition of the cleavage of a fluorogenic substrate); DENV-2 NS2B-NS3pro ~39 nM in well; 100 µM inhibitor, 125 µM substrate Phac-Lys-Arg-Arg-AMC (KM = 60 µM); 100 mM Tris pH 8.5, 20% glycerol, 0.01% Triton X-100; room temperature
WNV NS2B-NS3 protease [4] = target: T2, WNV NS2B-NS3 protease; set-up: method as in PMID 23307694; conditions: reference compounds available from previous studies; cited from earlier work
DENV (strain 16681) = experiment: DENV plaque assay (virus yield from infected Huh-7 cells, titration on VeroE6); type: cell-based, Dengue virus serotype 2; conditions: preliminary studies
Description: Inhibition of DENV propagation was determined by plaque assay as described recently[20]^,[28] with slight modifications. Huh-7 cells were seeded into 96-well plates and incubated overnight. The next day, cells were infected with DENV (strain 16681) at a multiplicity of infection (MOI) of 1 PFU/cell. Given concentrations of the compounds, dissolved in culture medium, were added to the cells together with the virus. After 2 h incubation at 37 °C, inocula were removed and cells were covered with fresh medium containing given concentrations of the inhibitors. Production of virus progeny was determined 48 h postinfection by titration of cell supernatants using a plaque assay on VeroE6 cells. Ribavirin was included as a reference compound.

In the case of `N=C(N)NCCC[C@H](NC(=O)[C@H](CCCCN)NC(=O)[C@H](CCCCN)NC(=O)Cc1ccccc1)C(=O)Nc1ccc([N+](=O)[O-])cc1` [Phac-Lys-Lys-Arg-pNA] (HELM PEPTIDE1{[O=C(Cc1ccccc1)[*:2]].K.K.R.[O=[N+]([O-])c1ccc(N[*:1])cc1]}$$$$V2.0), the “amount cleaved by the WNV-protease” value (WNV-protease) is reported as “approximately 33%”.

`N=C(N)NCCC[C@H](NC(=O)[C@H](CCCCN)NC(=O)[C@H](CCCCN)NC(=O)Cc1ccc(Cl)c(Cl)c1)C(=O)NCC(N)=O` [inhibitor 30] (HELM PEPTIDE1{[O=C(Cc1ccc(Cl)c(Cl)c1)[*:2]].K.K.R.G.[am]}$$$$V2.0) showed a Ki (WNV NS2B-NS3 protease [1]) of 1.8 µM and an inhibition at 100 µM [2] of 45%.

With “4-(guanidinomethyl)-phenylacetyl-Lys-Lys-Arg-NH2 (peptide)” the % inhibition at 100 μM inhibitor, 125 μM substrate [3] was 65%.

Molecule `N=C(N)NCCC[C@H](NC(=O)[C@H](CCCCN)NC(=O)[C@H](CCCCN)NC(=O)Cc1ccc(CNC(=N)N)cc1)C(N)=O` [inhibitor 38, 4-(guanidinomethyl)-phenylacetyl-Lys-Lys-Arg-NH2] has a Ki (WNV NS2B-NS3 protease [1]) of 0.11 µM and an inhibition at 100 µM [2] of 65%.

In the case of `N=C(N)NCCCCNC(=O)C(CCCCN)NC(=O)C(CCCCN)NC(=O)Cc1ccc(Cl)c(Cl)c1` (stereo not drawn) [3,4-di-Cl-Phac-Lys-Lys-agmatine], the Ki (WNV NS2B-NS3 protease [4]) is listed as 400 nM.

In the case of `N=C(N)NCCC[C@H](NC(=O)[C@H](CCCCN)NC(=O)[C@H](CCCCN)NC(=O)Cc1ccc2c(c1)OCO2)C(N)=O` [inhibitor 32], the Ki (WNV NS2B-NS3 protease [1]) is reported as 0.68 µM and the inhibition at 100 µM [2] is reported as 19.9%.

With `N=C(N)NC1CCC(CNC(=O)C(CCCCN)NC(=O)C(Cc2ccc(CN)cc2)NC(=O)Cc2ccccc2)CC1` (stereo not shown) [inhibitor 3, Phac-Phe(4-AMe)-Lys-GCMA] the “fold reduced potency against WNV protease” value (WNV NS2B-NS3 protease [1]; compared with reference inhibitor 2) was 4 fold, the Ki (WNV NS2B-NS3 protease [1]) was 4.7 µM and 4.71 µM and the inhibition at 100 µM [2] was 12.4%.

For `CC(C)[C@H](NC(=O)[C@H](CCCNC(=N)N)NC(=O)[C@H](CCCCN)NC(=O)[C@H](CCCCN)NC(=O)Cc1ccccc1)C(N)=O` [inhibitor 21] (HELM PEPTIDE1{[O=C(Cc1ccccc1)[*:2]].K.K.R.V.[am]}$$$$V2.0), the Ki (WNV NS2B-NS3 protease [1]) was 105 µM and the inhibition at 100 µM [2] was 12%.

Molecule `N=C(N)NCCC[C@H](NC(=O)[C@H](CCCCN)NC(=O)[C@H](CCCCN)NC(=O)Cc1ccccc1)C(=O)NCC(N)=O` [inhibitor 18] (HELM PEPTIDE1{[O=C(Cc1ccccc1)[*:2]].K.K.R.G.[am]}$$$$V2.0) has a Ki (WNV NS2B-NS3 protease [1]) of 2.56 µM and an inhibition at 100 µM [2] of 30.7%.

For `N=C(N)N[C@H]1CC[C@H](CNC(=O)[C@H](CCCCN)NC(=O)[C@H](CCCCN)NC(=O)Cc2ccc(Cl)c(Cl)c2)CC1` [inhibitor 1], the “antiviral effect in DENV-infected cells” value (DENV (strain 16681)) was “no antiviral effect”.

With `N=C(N)NCCC[C@H](NC(=O)[C@H](CCCCN)NC(=O)[C@H](CCCCN)NC(=O)Cc1cccc(N)c1)C(N)=O` [inhibitor 31] the Ki (WNV NS2B-NS3 protease [1]) was 1.2 µM and the inhibition at 100 µM [2] was 27.5%.
